Experimental data reported in patent US9072791B2, “Photostabilized pharmaceutical compositions” (DENKI KAGAKU KOGYO KABUSHIKI KAISHA, priority 2008, dated 2015).

Tests used:
Type in all cases: physicochemical
[1] = Photostability test in glass vials not shielded from light: gelation, molecular weight, percent conjugation of MTX (Example 4(2)); details: not shielded from light; for Molecular weight (×10^4), irradiation time 0 h / Molecular weight (×10^4), irradiation time 25 h / Molecular weight (×10^4), irradiation time 50 h / Molecular weight (×10^4), irradiation time 100 h / Molecular weight (×10^4), irradiation time 150 h / Molecular weight (×10^4), irradiation time 300 h / Percent Conjugation (%) of MTX, irradiation time 0 h / Percent Conjugation (%) of MTX, irradiation time 25 h / Percent Conjugation (%) of MTX, irradiation time 50 h / Percent Conjugation (%) of MTX, irradiation time 100 h / Percent Conjugation (%) of MTX, irradiation time 150 h / Percent Conjugation (%) of MTX, irradiation time 300 h: 4000 Lux, 25° C.
Method: Various photostabilizers (methyl p-hydroxybenzoate (methyl paraben), salicylic acid Na, thiosulfuric acid Na, thioglycolic acid Na, N-acetyltryptophan, and tryptophan) were each dissolved in a preparation buffer (0.9% NaCl containing 2 mM phosphate buffer, pH 7.4) to give a concentration of 1 or 10 mg/ml and thereafter filtered aseptically by passage through a 0.2-μm filter (Millex GV). A powder of the HA-MTX conjugate prepared in accordance with Production 1 was metered aseptically and dissolved in the filtered, photostabilizer-containing preparation buffer to give a concentration of 10 mg/mL; the thus prepared solutions were used as test samples. To prepare a control solution, the HA-MTX conjugate was dissolved in a photostabilizer-free preparation buffer at a concentration of 10 mg/mL.
The thus prepared solutions were put into glass vials not shielded from light and then irradiated with light.
The irradiation was so performed as to give an illuminance of 4000 Lux at 25° C. from a fluorescent lamp for use in a photostability test (TOSHIBA FL20S•D-EDL-D65) by means of a photostability tester (ETAC LABONIC LA110). After the lapse of specified periods (0 h, 25 h, 50 h, 100 h, 150 h, and 300 h) of irradiation, samples were taken and not only checked for gelation but also measured for the molecular weight of the HA-MTX conjugate and the percent conjugation of MTX (in the HA-MTX conjugate).
To evaluate the degree of gelation, the surface of each sample solution was pierced with a spatula and visually checked for the formation of an interface as the result of gelation. […] The apparatus used in gel filtration chromatography was equipped with OHpackSB-806HQ (Shodex) as a column, RI-71 (Shodex) as an […], and 875-UV (JASCO, detection wavelength: 304 nm) as a UV detector and analysis was conducted under the following conditions. Eluent: 50 mM sodium phosphate aqueous solution (pH 6.0); elution rate: 0.6 mL/min; column temperature: 40° C. By the above-described gel filtration chromatography, the elution times of the conjugate of interest were determined and the molecular weight of the same conjugate was determined from the relationship between the elution times and molecular weights of standard substances. As the standard substances, hyaluronic acid samples were prepared in varying molecular weights and their accurate values were calculated by the limiting viscosity method before it was used.

[2] = Photostability test with additional light-shielding film LUMICOOL 1905 (Example 6); details: vial wrapped with LUMICOOL 1905;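 note: molecular weight and drug conjugation percentage of the test conjugate, both determined by the method given for the first production procedure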
[3] = Effect of photostabilizers on the excitation spectra of the HA-MTX conjugate (Example 4(1)); details: fluorescence at 458 nm
Method: Various photostabilizers (methyl p-hydroxybenzoate (methyl paraben), salicylic acid Na, thiosulfuric acid Na, and N-acetyltryptophan) were each dissolved in a preparation buffer (0.9% NaCl containing 2 mM phosphate buffer (pH 7.4)) to give a concentration of 9 mg/ml (but 0.9 mg/ml in the case of methyl paraben) and thereafter filtered aseptically by passage through a 0.2-μm filter (Millex GV). […] The test samples and the control were irradiated with light at 300-480 nm and the intensity of fluorescence at 458 nm was measured.

[4] = Fluorescing of the HA-MTX conjugate upon irradiation with light at specified wavelengths (Example 1); design: key: rated “+” when strong emission was observed after the irradiation; rated “−” when the emission after the irradiation was not different from the emission before the irradiation
Method: The HA-MTX conjugate obtained in Production 1 was dissolved in 0.9% NaCl containing 2 mM phosphate buffer (pH 7.3) to give a concentration of 9.9 mg/ml in terms of HA and the solution was irradiated with light at varying wavelengths (260 nm, 310 nm, 360 nm, and 405 nm) using a fluorescence detector for liquid chromatography (product of Hitachi, Ltd.; fluorescence detector of model F1050) to observe the gelation and fluorescing of the conjugate. To evaluate the gelation, the surface of the sample solution was pierced with a spatula and visually checked for the formation of an interface as the result of gelation. To observe fluorescing, the sample was irradiated with exciting light and the state of light emission from the sample was observed by direct visual checking before and after the irradiation; the result was rated “+” when strong emission was observed after the irradiation but rated “−” when the emission after the irradiation was not different from the emission before the irradiation.

N[C@@H](Cc1c[nH]c2ccccc12)C(=O)O [Tryptophan, tryptophan]
suppressing drops in the molecular weight and percent conjugation ([1]; added at 1 mg/mL): could suppress drops in the molecular weight and percent conjugation for irradiation periods that did not exceed about 100 hours | Molecular weight (×10^4), irradiation time 0 h ([1]; additive 1 mg/ml): 188 ×10^4 | Molecular weight (×10^4), irradiation time 25 h ([1]; additive 1 mg/ml): 171 ×10^4 | Molecular weight (×10^4), irradiation time 50 h ([1]; additive 1 mg/ml): 138 ×10^4 | Molecular weight (×10^4), irradiation time 100 h ([1]; additive 1 mg/ml): 112 ×10^4 | Molecular weight (×10^4), irradiation time 150 h ([1]; additive 1 mg/ml): 83 ×10^4 | Molecular weight (×10^4), irradiation time 300 h ([1]; additive 1 mg/ml): 45 ×10^4 | Percent Conjugation (%) of MTX, irradiation time 0 h ([1]; additive 1 mg/ml): 2.2% | Percent Conjugation (%) of MTX, irradiation time 25 h ([1]; additive 1 mg/ml): 2.2% | Percent Conjugation (%) of MTX, irradiation time 50 h ([1]; additive 1 mg/ml): 2.2% | Percent Conjugation (%) of MTX, irradiation time 100 h ([1]; additive 1 mg/ml): 2.2% | Percent Conjugation (%) of MTX, irradiation time 150 h ([1]; additive 1 mg/ml): 2.1% | Percent Conjugation (%) of MTX, irradiation time 300 h ([1]; additive 1 mg/ml): 2.2% | Molecular weight (×10^4), irradiation time 0 h ([1]; additive 10 mg/ml): 181 ×10^4 | Molecular weight (×10^4), irradiation time 25 h ([1]; additive 10 mg/ml): 175 ×10^4 | Molecular weight (×10^4), irradiation time 50 h ([1]; additive 10 mg/ml): 164 ×10^4 | Molecular weight (×10^4), irradiation time 100 h ([1]; additive 10 mg/ml): 118 ×10^4 | Molecular weight (×10^4), irradiation time 150 h ([1]; additive 10 mg/ml): 110 ×10^4 | Molecular weight (×10^4), irradiation time 300 h ([1]; additive 10 mg/ml): 70 ×10^4 | Percent Conjugation (%) of MTX, irradiation time 0 h ([1]; additive 10 mg/ml): 2.2% | Percent Conjugation (%) of MTX, irradiation time 25 h ([1]; additive 10 mg/ml): 2.3% | Percent Conjugation (%) of MTX, irradiation time 50 h ([1]; additive 10 mg/ml): 2.2% | Percent Conjugation (%) of MTX, irradiation time 100 h ([1]; additive 10 mg/ml): 2.2% | Percent Conjugation (%) of MTX, irradiation time 150 h ([1]; additive 10 mg/ml): 2.2% | Percent Conjugation (%) of MTX, irradiation time 300 h ([1]; additive 10 mg/ml): 2.2% | Molecular weight (×10^4), irradiation time 0 h ([2]; additive 1 mg/mL): 188 ×10^4 | Molecular weight (×10^4), irradiation time 150 h ([2]; additive 1 mg/mL): 176 ×10^4 | Molecular weight (×10^4), irradiation time 300 h ([2]; additive 1 mg/mL): 153 ×10^4 | Percent Conjugation (%), irradiation time 0 h ([2]; additive 1 mg/mL): 2.2% | Percent Conjugation (%), irradiation time 150 h ([2]; additive 1 mg/mL): 2.2% | Percent Conjugation (%), irradiation time 300 h ([2]; additive 1 mg/mL): 2.2% | Molecular weight (×10^4), irradiation time 0 h ([2]; additive 10 mg/mL): 181 ×10^4 | Molecular weight (×10^4), irradiation time 150 h ([2]; additive 10 mg/mL): 177 ×10^4 | Molecular weight (×10^4), irradiation time 300 h ([2]; additive 10 mg/mL): 156 ×10^4 | Percent Conjugation (%), irradiation time 0 h ([2]; additive 10 mg/mL): 2.2% | Percent Conjugation (%), irradiation time 150 h ([2]; additive 10 mg/mL): 2.2% | Percent Conjugation (%), irradiation time 300 h ([2]; additive 10 mg/mL): 2.2%

MTX-α-PhePhe-NHC2H4NH-HA [HA-MTX conjugate]
main excitation wavelengths ([3]; control solution 1 mg/ml, no photostabilizer): 320-430 nm | excitation maximum wavelength (Ex λmax) [3]: 380 nm | Fluorescence ([4]; irradiation at 260 nm): − | Fluorescence ([4]; irradiation at 310 nm): − | Fluorescence ([4]; irradiation at 360 nm): + | Fluorescence ([4]; irradiation at 405 nm): +
